Laboratory results reported in publication PMC10779086, “3-O-Methyltolcapone and Its Lipophilic Analogues Are Potent Inhibitors of Transthyretin Amyloidogenesis with High Permeability and Low Toxicity” (International Journal of Molecular Sciences, 2023).

Assays:
[1] = system: SH-SY5Y neuroblastoma human cell line; assay: Cytotoxicity in SH-SY5Y cells (ATP viability assay); assay type: cell-based; details: 48 h
Procedure: The neuroblastoma cell line SHSY-5Y (ATCC CRL2266) was cultured in EMEM ATCC medium supplemented with 10% FBS (Euroclone CAT No. ECS0180D), 100 units/mL penicillin, and 100 ug/mL streptomycin sulphate (Euroclone CAT No. ECB3001). Cells were grown at 37 °C in an atmosphere of 5% CO2 and plated at 10,000 cells/well in a 96-well plate (Corning Cat. N. 3610). The compounds were dissolved at a concentration of 10 mM in DMSO. Cells were stimulated for 48 h at 37 °C with serial dilutions of the compounds at the following concentrations: 0.1, 1, 10, 50, 100, and 200 μM and dispensed with an HP Dispenser (Tecan), as triplicates for each concentration. DMSO normalisation at 1.5% was performed in each well.
Cell viability was evaluated by measuring ATP levels using CellTiter Glo (Promega Cat.n. G7570) according to manufacturer’s instructions.

[2] = Blood-brain barrier permeability (PAMPA-BBB); assay type: in vitro ADME; details: for Papp: PBS pH 7.4, read-out: BBB-Pe; for CNS Class: classified by Pe; for permeability (Pe) times higher compared to tolcapone: relative to tolcapone
Procedure: The assay combines solubility and a non-cell-based Blood Brain Barrier permeability assay (Parallel Artificial Membrane Permeation Assay; PAMPA-BBB) into a single workflow in which a portion of the filtrate from the Solubility filter plate is added to the donor compartment of the MultiScreen filter plate for the PAMPA-BBB analysis. […] Solutions were filtered into a 96-well collection plate using vacuum filtration and then analysed by UV/Vis spectroscopy. The relative solubility was then calculated using the sum of the recorded values as compared to a standard calibration curve. […] PAMPA-BBB determination was carried out in a 96-well MultiScreen Permeability plate and the ability of a compound to diffuse from a Donor to an Acceptor compartment separated by a Porcine Brain Lipid Extract (PBLE) dissolved in dodecane (20 mg/mL) layer on a PVDF membrane support was measured. The assay was performed in duplicate in PBS at pH 7.4 and the analysis is carried out by UV/Vis spectroscopy.
The compounds are classified into 2 types: CNS+ compounds that can cross the BBB and CNS- compounds that cannot according to the Pe values (BBB−, Pe < 2 × 10^−6 cm/s; BBB +/−, 2 × 10^−6 cm/s < Pe < 4 × 10^−6 cm/s; BBB+, Pe > 4 × 10^−6 cm/s).
Membrane retention is also evaluated according to Equation (1), (1) 1−Rm=CAccVAcc+CDonorVDonor/Sol×VDonor where Rm is the membrane retention factor. 1 − Rm between 1.2 and 0.8 is considered fully acceptable for the reliability of the results.

[3] = plasma; cited from earlier work
Caco-2 cells = assay: Caco-2 intestinal permeability; assay type: in vitro ADME, human; details: A→B, relative to tolcapone
Procedure: Caco-2 cells (cod. HTB-37) were bought from ATCC (American Type Culture Collection, Rockville, MD, USA). Caco-2 cells were cultured for 21 days on a 24 trans-well plate to reach the right confluence and differentiate until the formation of the intestinal epithelium mimetic monolayer. The test substance permeability was measured in both directions (apical to basolateral [A→B] and basolateral to apical [B→A]) across the cell monolayer. The assay was carried out in HBSS transport medium at pH 7.4. Test substance at single concentration (10 μM) was tested in duplicate at one time point (60 min). Monolayer integrity of Caco-2 cells was evaluated by TEER measurements during the experiment and by Lucifer Yellow test after the incubation with the test compound. The concentrations of the test substance and/or reference controls were measured by LC-MS/MS.
When the inhibitor leads the efflux ratio to a significant reduction (>50%) or to unity, the test compound is classified as a probable substrate of that efflux transporter. As control, the modulation of the efflux ratio of a reference known substrate (Digoxin) was evaluated with or without the respectively inhibitors in every experiment. […] In parallel, mass balance (%) of recovered test substance was also determined. […] Outside these ranges the permeability data is not reliable.

| Compound | EC50 [1] [µM] | 1-Rm (membrane retention) [2] | Papp [2] [×10⁻⁶ cm/s] | CNS Class [2] | permeability (Pe) times higher compared to tolcapone [2] [times] | half-life [3] [h] | increase of permeability Papp value (A→B) compared to tolcapone (Caco-2 cells) [fold] | melting point [°C] |
| --- | --- | --- | --- | --- | --- | --- | --- | --- |
| COc1cc(C(=O)c2ccc(C)cc2)cc([N+](=O)[O-])c1O [3-OMT, 3-O-methyltolcapone] | 226.3 ± 1.3 | 0.9 | 14.4 | CNS+ (BBB+, Pe > 4 × 10^−6 cm/s) | 2.5 | 40.9 | – | – |
| COc1cc(C(=O)c2cc(C)cc(C)c2)cc([N+](=O)[O-])c1O [Compound 1, (4-Hydroxy-3-methoxy-5-nitrophenyl)-1-(3,5-dimethylphenyl)methanone] | 172 ± 5 | 0.9 | 15.3 | CNS+ (BBB+, Pe > 4 × 10^−6 cm/s) | 2.5 | – | 2.5 | 144 to 145 |
| COc1cc(C(=O)c2ccc(C)cc2C)cc([N+](=O)[O-])c1O [Compound 2, (4-Hydroxy-3-methoxy-5-nitrophenyl)-1-(2,4-dimethylphenyl)methanone] | 174 ± 3.7 | 1.0 | 13.5 | CNS+ (BBB+, Pe > 4 × 10^−6 cm/s) | 2.5 | – | 2.5 | 126 to 127 |
